Where two headings read alike, the source gives them in different places.
Key:
[1] = test system: P. falciparum Dd2 (PfLuc) line expressing firefly luciferase, asexual blood stage; assay: microbe, parasite or virus in culture; assay type: cell-based, Plasmodium falciparum; conditions: Plasmodium falciparum
P. falciparum Dd2 = assay: SYBR green I asexual blood stage proliferation assay (96 h); assay type: cell-based, Plasmodium falciparum; conditions: Plasmodium falciparum, DD2, 11-pt dose response, 96hr
[2] = DD2, read-out: CDD P. falciparum Luciferase ABS 11-pt Reconfirmation Dose Response (48hr): IC50 (μM), 11-pt dose response, 48hr
[3] = DD2, 8-pt dose response, 96hr, read-out: CDD P. falciparum Luciferase ABS 8-pt Reconfirmation Dose Response (96hr): IC50
[4] = DD2, 8-pt dose response, 96hr, read-out: CDD P. falciparum Luciferase ABS 8-pt Reconfirmation Dose Response (96hr): Maximum inhibition (%)
[5] = DD2, 11-pt dose response, 48hr, read-out: CDD P. falciparum Luciferase ABS 11-pt Reconfirmation Dose Response (48hr): Maximum inhibition (%)
[6] = DD2, 11-pt dose response, 96hr, read-out: CDD P. falciparum Luciferase ABS 11-pt Reconfirmation Dose Response (96hr): IC50
[7] = DD2, 11-pt dose response, 96hr, read-out: CDD P. falciparum Luciferase ABS 11-pt Reconfirmation Dose Response (96hr): Maximum inhibition (%)
[8] = Sybr Green I, read-out: CDD P. falciparum Sybr Green I ABS 11-pt Reconfirmation Dose Response (96hr): IC50
[9] = Sybr Green I, read-out: CDD P. falciparum Sybr Green I ABS 11-pt Reconfirmation Dose Response (96hr): Maximum inhibition (%)
[10] = DD2, read-out: P. falciparum Luciferase ABS 11-pt Reconfirmation Dose Response (48hr): IC50, 11-pt dose response, 48hr
[11] = DD2, 8-pt dose response, 96hr, read-out: P. falciparum Luciferase ABS 8-pt Reconfirmation Dose Response (96hr): IC50
[12] = DD2, 8-pt dose response, 96hr, read-out: P. falciparum Luciferase ABS 8-pt Reconfirmation Dose Response (96hr): Maximum inhibition (%)
[13] = DD2, 11-pt dose response, 48hr, read-out: P. falciparum Luciferase ABS 11-pt Reconfirmation Dose Response (48hr): Maximum inhibition (%)
[14] = DD2, 11-pt dose response, 96hr, read-out: P. falciparum Luciferase ABS 11-pt Reconfirmation Dose Response (96hr): IC50
[15] = DD2, 11-pt dose response, 96hr, read-out: P. falciparum Luciferase ABS 11-pt Reconfirmation Dose Response (96hr): Maximum inhibition (%)
[16] = read-out: P. falciparum Sybr Green I ABS 11-pt Reconfirmation Dose Response (96hr): IC50
[17] = read-out: P. falciparum Sybr Green I ABS 11-pt Reconfirmation Dose Response (96hr): Maximum inhibition (%)

| Compound | IC50 [1, 2] [µM] | IC50 [1, 3] [µM] | Emax [1, 4] [%] | Emax [1, 5] [%] | IC50 [1, 6] [µM] | Emax [1, 7] [%] | IC50 (P. falciparum Dd2; [8]) [nM] | Emax (P. falciparum Dd2; [9]) [%] | IC50 [1, 10] [µM] | IC50 [1, 11] [µM] | Emax [1, 12] [%] | Emax [1, 13] [%] | IC50 [1, 14] [µM] | Emax [1, 15] [%] | IC50 (P. falciparum Dd2; [16]) [nM] | Emax (P. falciparum Dd2; [17]) [%] |
| --- | --- | --- | --- | --- | --- | --- | --- | --- | --- | --- | --- | --- | --- | --- | --- | --- |
| Cc1ccc(C(CCNCCCN(C)C)C2CCOC(C)(C)C2)cc1 (stereo not shown) [DDD01026662] | 7.59 | 0.76 | 96.2 | 95.3 | 5.89 | 98.8 | 1570 | 97.5 |  |  |  |  |  |  |  |  |
| CCOc1ccc(Br)cc1C1CCCCN1 (stereo not shown) [DDD01034784] | > 12.5 | 0.81 | 86.8 | 60 | > 1.39 | 90.9 | 2780 | 65.2 |  |  |  |  |  |  |  |  |
| Cc1ccc(CNC(C)c2cc(F)ccc2N2CCN(C)CC2)o1 (stereo not shown) [DDD01061881] | 3.93 | 0.41 | 90.7 | 87.5 | 2.12 | 97.7 | 2420 |  |  |  |  |  |  |  |  |  |
| c1ccc(Sc2ccc3c(c2)OCO3)c(CNC2=NCCN2)c1 [DDD01035544] | 7.86 | 1.05 | 85.5 | 75 | 1.67 | 95.1 | > 4160 | 65.9 |  |  |  |  |  |  |  |  |
| NC1CCCCN(Cc2cc(-c3ccccc3OC(F)(F)F)no2)C1 (stereo not shown) [DDD01244394] |  |  |  |  |  |  |  |  | > 4.16 | 1.45 | 88.9 | 84.8 | > 1.39 | 97.5 | > 4160 | 69.6 |
| c1ccc(CN2CCCC3(CCN(Cc4cccs4)C3)C2)nc1 (stereo not shown) [DDD01029520] |  |  |  |  |  |  |  |  | 6.38 | 1.97 | 83.5 | 51.8 | 2.96 | 86.9 | > 4160 | 58 |
| CCN1CCC2(CC1)CC(NCc1ccncc1)c1ccccc1O2 (stereo not shown) [DDD01034171] | > 12.5 | 0.75 | 87.7 | 61.8 | 3.05 | 86 | > 4160 | 74 |  |  |  |  |  |  |  |  |
| Cc1c(C)n(CC(O)CN2CCN(CCO)CC2)c2c(Cl)cccc12 (stereo not shown) [DDD01034970] |  |  |  |  |  |  |  |  | 3.79 | 1.15 | 85.4 | 86.8 | 2.24 | 95.9 | > 4160 | 73.1 |
| CC(C)C(CNCc1cccc2c1OCO2)N1CCOCC1 (stereo not shown) [DDD01077478] | > 12.5 | 0.56 | 86.4 | 52.1 | 2.57 | 85.2 | 1890 | 62.1 |  |  |  |  |  |  |  |  |
| COc1ccccc1C1(CNCc2cccc(O)c2)CCOCC1 [DDD01075721] | 10.3 | 0.85 | 85.5 | 67.7 | 2.2 | 90.3 | > 4160 | 68.7 |  |  |  |  |  |  |  |  |
| CN(CCO)C[C@@H]1CN(Cc2ccccc2-c2ccccc2)C[C@@H]1CO [DDD01252927] | 8.14 | 0.57 | 92 | 71.8 | 1.25 | 92.8 | > 1390 | 89.1 |  |  |  |  |  |  |  |  |
| c1cc(N2CCC(CN3CCOCC3)CC2)c2sccc2n1 [DDD01064806] |  |  |  |  |  |  |  |  | 1.38 | 1.43 | 94.6 | 99.7 | 1.12 | 100 | 1150 | 100 |
| CN1CCN(Cc2ccccc2Oc2nccc3occc23)CC1 [DDD01252026] | > 12.5 | 0.71 | 83.5 | 26.1 | 2.91 | 85.7 | > 4160 | 63.4 |  |  |  |  |  |  |  |  |
| CC(C)c1n[nH]c(C(=O)Nc2ccccn2)c1Br [DDD01298780] | 4.01 | 0.53 | 92.3 | 87.6 | 3.99 | 95.1 | 4270 | 51.4 |  |  |  |  |  |  |  |  |
| CC(C)CNc1cc(-c2c[nH]nc2C2CCN(C(=O)C3CC3)C2)ccn1 (stereo not shown) [DDD01057306] | 5.71 | 0.28 | 95.6 |  | 1.93 | 96.6 | 5020 | 50.9 |  |  |  |  |  |  |  |  |

Reference: article PMC7155171, “Probing the Open Global Health Chemical Diversity Library for Multistage-Active Starting Points for Next-Generation Antimalarials” (ACS Infectious Diseases, 2020)
